We go through 13 compounds from article PMC9502896 (Nutrients, 2022).

In assay [1] the target is T1, hMAO-A (Homo sapiens, UniProt P21397).
T1 construct: purchased Sigma-Aldrich
T1 sequence (P21397 1-527): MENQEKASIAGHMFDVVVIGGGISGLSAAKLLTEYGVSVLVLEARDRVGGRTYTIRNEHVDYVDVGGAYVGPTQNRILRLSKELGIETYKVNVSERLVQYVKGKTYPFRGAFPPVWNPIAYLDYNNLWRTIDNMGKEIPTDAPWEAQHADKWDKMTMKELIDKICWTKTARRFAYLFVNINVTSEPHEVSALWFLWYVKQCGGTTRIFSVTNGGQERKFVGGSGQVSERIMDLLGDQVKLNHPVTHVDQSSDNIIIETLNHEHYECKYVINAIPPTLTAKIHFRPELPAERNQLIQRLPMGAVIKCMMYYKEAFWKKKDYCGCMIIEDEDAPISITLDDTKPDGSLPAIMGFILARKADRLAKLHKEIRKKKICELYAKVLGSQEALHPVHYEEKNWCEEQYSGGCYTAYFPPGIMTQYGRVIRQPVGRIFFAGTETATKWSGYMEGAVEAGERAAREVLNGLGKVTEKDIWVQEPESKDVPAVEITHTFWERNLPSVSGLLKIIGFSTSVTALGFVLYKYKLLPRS
The assay can be described thus: In vitro hMAO inhibitory assay (luminometric), MAO-A. The class given is biochemical. As to the method:
(§1) The inhibitory potential of the P. lobata-derived phytochemicals against MAO was evaluated through the luminometric method. Various doses of phytoestrogens in 0.1 M HEPES buffer (pH 7.5) with 5% 1,2,3-propanetriol for MAO-A and 5% 1,2,3-propanetriol and 10% dimethyl sulfoxide for MAO-B were mixed with the substrate (160 µM for MAO-A and 16 µM for MAO-B) and 0.5 µg of the enzyme and incubated at 25 °C. After 1 h incubation, reconstituted luciferin-detection reagent was added to the reaction mixture and incubated at 25 °C for 20 min. After that, luminescent signals were monitored using a microplate reader (Biotek, Winooski, VT, USA).
(§2) In addition, since factors such as organic solvents, metal ions (such as Cu^2+, Cd^2+, and Al^3+), pH, and temperature affect MAO activity, the assay was conducted in a well-controlled laboratory environment. The optimal conditions for the enzymatic reaction, including reaction time, temperature, pH, and the concentrations of the enzyme and substrate, were established based on the previous study. All the test samples were diluted in a reaction buffer containing 10% or less DMSO, and the solvent-control group was tested together for each assay to minimize false-positive/false-negative effects.

In the next assay the target is T2, hMAO-B (Homo sapiens, UniProt P27338).
T2 construct: purchased Sigma-Aldrich
T2 sequence (P27338 1-520): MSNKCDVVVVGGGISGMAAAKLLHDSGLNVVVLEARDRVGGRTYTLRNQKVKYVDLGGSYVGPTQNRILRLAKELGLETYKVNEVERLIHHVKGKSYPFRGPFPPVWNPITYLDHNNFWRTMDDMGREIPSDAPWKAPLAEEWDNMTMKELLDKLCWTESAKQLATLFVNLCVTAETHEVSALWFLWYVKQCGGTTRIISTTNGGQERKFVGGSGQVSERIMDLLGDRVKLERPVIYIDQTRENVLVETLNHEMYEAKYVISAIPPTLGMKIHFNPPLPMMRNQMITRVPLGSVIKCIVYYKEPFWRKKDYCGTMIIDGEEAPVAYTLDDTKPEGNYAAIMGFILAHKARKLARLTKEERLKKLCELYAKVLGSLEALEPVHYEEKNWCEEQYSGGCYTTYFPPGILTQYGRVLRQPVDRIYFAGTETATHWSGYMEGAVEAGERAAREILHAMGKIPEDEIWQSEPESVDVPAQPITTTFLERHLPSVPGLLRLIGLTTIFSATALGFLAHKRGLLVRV
The assay can be described thus: In vitro hMAO inhibitory assay (luminometric), MAO-B. The class given is biochemical. Particulars: 16 µM substrate, 0.5 µg enzyme, 25 °C, 1 h; read-out: hMAO-B IC50 (Mean ± SD). As to the method:
as §1, §2

The target in assay [2] is T1, hMAO-A. The assay can be described thus: Kinetic assay for hMAO-A (Lineweaver-Burk and secondary plots). The class given is biochemical. As to the method:
The experimental method was the same as that used for the hMAO inhibitory assay; 0.5 µg of enzyme, 40–160 µM substrate and 0, 2.5, 10, and 20 µM coumestrol were used. A Lineweaver–Burk plot (LB plot) was generated using SigmaPlot 12.0 based on the results of the kinetic assay and secondary plots of the LB plot (LB-2nd plot) were generated using the exploratory EK macro module (Table S1).
The equation for the LB plot is as follows:(1) […]

The target in the next assay is T3, Aβ25–35 (Homo sapiens, UniProt P05067).
T3 construct: amyloid β peptide 25–35 (Aβ25–35); purchased Sigma-Aldrich
Kind of assay: Self Aβ25–35 aggregation assay (thioflavin-T fluorescence). The class given is biochemical. Particulars: for decrease of Aβ25–35 self-aggregation compared to control: 100 μM compound, 24 h of incubation. As to the method:
The Aβ25–35 self-aggregation assay was performed following the method described by Naldi et al.. First, peptide was pretreated with HFIP for 1 day at 22 °C to obtain non-amyloidogenic conformation. […] After incubation, the reaction mixture was supplemented with 0.025 mM thioflavin-T in 50 mM glycine–NaOH buffer (pH 8.5). The fluorescence emission was monitored at 490 nm with excitation at 446 nm using the Gemini XPS (Molecular Devices, Sunnyvale, CA, USA).

In a further assay the test system is β-secretase. Set-up: method as in PMID 29597336. Particulars: cited from earlier work.
Another assay concerns mouse astrocytes. Set-up: method as in PMID 21708076. Conditions: nanomolar concentration; Aβ-induced cytotoxicity and inflammatory cytokine levels; cited from earlier work.
The next assay has as its system MAO-A. Conditions: cited from earlier work.
The test system of a further assay is MAO-B. Conditions: cited from earlier work.
Setting [3] is: 160 µM substrate, 0.5 µg enzyme, 25 °C, 1 h, read-out: hMAO-A IC50 (Mean ± SD).
[4] abbreviates: substrate 40 μM, coumestrol 2.5 μM.
[5] abbreviates: substrate 40 μM, coumestrol 10 μM.
The mark [6] stands for this setting: substrate 40 μM, coumestrol 20 μM.
The mark [7] stands for this setting: substrate 80 μM, coumestrol 2.5 μM.
[8] abbreviates: substrate 80 μM, coumestrol 10 μM.
The mark [9] stands for this setting: substrate 80 μM, coumestrol 20 μM.
Setting [10] is: substrate 160 μM, coumestrol 2.5 μM.
Where [11] appears, read: substrate 160 μM, coumestrol 10 μM.
Setting [12] is: substrate 160 μM, coumestrol 20 μM.
Setting [13] is: Screening active compound, 100 μM.

Several values for one entry are separate records, joined by “and”; a condition that tells them apart may be missing. Equal entries are not always repeated. Where two headings read alike, the source gives them in different places.

`O=c1oc2cc(O)ccc2c2oc3cc(O)ccc3c12` [Coumestrol]: the IC50 at hMAO-A [1] (setting [3]) is 1.99 ± 0.68 µM; on hMAO-B it was 77.8 ± 2.1 µM; at Aβ25–35 (thioflavin-T assay, read-out: IC50 for inhibition of Aβ25–35 self-aggregation) it was 37.4 ± 1.7 µM. Besides, the “Inhibition Mode” value on hMAO-A [2] (0.5 µg MAO-A, 40–160 µM substrate, 25 °C) is listed as “Competitive”; at hMAO-A [2] (0.5 µg MAO-A, 40–160 µM substrate, 25 °C, listed as coumestrol), “competitive inhibitor”. The inhibition constant Ki on hMAO-A [2] (0.5 µg MAO-A, 40–160 µM substrate, 25 °C, secondary plots, read-out: Inhibition Constant (Ki)) worked out at 1.32 µM. For the same compound, the “1/V Mean” value is given as 0.000734 1/(RLU/60min) on hMAO-A [2] (setting [4]); 0.001642 1/(RLU/60min) at hMAO-A [2] (setting [5]); 0.002945 1/(RLU/60min) on hMAO-A [2] (setting [6]); 0.000475 1/(RLU/60min) on hMAO-A [2] (setting [7]); 0.000938 1/(RLU/60min) on hMAO-A [2] (setting [8]); 0.001597 1/(RLU/60min) on hMAO-A [2] (setting [9]). The entries for the “1/V Mean” value on hMAO-A [2] (setting [10]), on hMAO-A [2] (setting [11]) and at hMAO-A [2] (setting [12]) were 0.000261 1/(RLU/60min), 0.000495 1/(RLU/60min) and 0.000797 1/(RLU/60min), respectively. The “RLU Mean” value stood at 81783.67 RLU on hMAO-A [2] (setting [4]); 36716 RLU on hMAO-A [2] (setting [5]); 20374 RLU at hMAO-A [2] (setting [6]); 126374 RLU on hMAO-A [2] (setting [7]); 64010.67 RLU at hMAO-A [2] (setting [8]); 37649 RLU at hMAO-A [2] (setting [9]). For the same compound, the entries for the “RLU Mean” value on hMAO-A [2] (setting [10]), at hMAO-A [2] (setting [11]) and at hMAO-A [2] (setting [12]) were 229959.3 RLU, 121308.7 RLU and 75572 RLU, respectively. Moreover, the “decrease of Aβ25–35 self-aggregation compared to control” value (“decrease of Aβ25–35 self-aggregation” below) on Aβ25–35 was determined as 76.14%. Further, the “Fluorescence (Emission = 490 nm / Excitation = 446 nm), replicates 1-3” value was 874.9012 and 872.4322 and 899.9266 on Aβ25–35 (Dose-dependent curves, 5 μM); 820.955 and 835.446 and 846.767 at Aβ25–35 (Dose-dependent curves, 10 μM); 725.8814 and 709.3678 and 704.8239 at Aβ25–35 (Dose-dependent curves, 20 μM); 578.864 and 549.001 and 576.214 at Aβ25–35 (Dose-dependent curves, 50 μM); 484.285 and 460.697 and 486.519 on Aβ25–35 (Dose-dependent curves, 100 μM); 420.995 and 408.908 and 418.89 on Aβ25–35 (setting [13]). In addition, the “in vitro inhibitory effect against β-secretase” value in the assay with β-secretase is given as “in vitro inhibitory effect”. In the assay with mouse astrocytes, the “neuroprotective effects in mouse astrocytes” value was “neuroprotective effects”.

Consider `COc1cc(/C=C/C(=O)CC(=O)/C=C/c2ccc(O)c(OC)c2)ccc1O` [Curcumin, curcumin, reference compound], for which the “Fluorescence (Emission = 490 nm / Excitation = 446 nm), replicates 1-3” value on Aβ25–35 (Dose-dependent curves, 5 μM) is 714.733 and 699.957 and 732.987; at Aβ25–35 (Dose-dependent curves, 10 μM) it was 659.3354 and 647.8281 and 645.7345; on Aβ25–35 (Dose-dependent curves, 20 μM) it was 508.323 and 494.704 and 529.05; on Aβ25–35 (Screening active compound, 20 μM), 446.557 and 456.907 and 436.435.

Turning to `O=c1c(-c2ccc(O)cc2)coc2cc(O)ccc12` [Daidzein], the “decrease of Aβ25–35 self-aggregation” value at Aβ25–35 was determined as 35.54%. Moreover, the “Fluorescence (Emission = 490 nm / Excitation = 446 nm), replicates 1-3” value on Aβ25–35 (setting [13]) was 752.714 and 744.841 and 739.542.

Turning to `O=c1c(-c2ccc(O)cc2)coc2cc(O[C@@H]3O[C@H](CO)[C@@H](O)[C@H](O)[C@H]3O)ccc12` [Daidzin], the IC50 on hMAO-A [1] and at hMAO-B was over 400 µM each time.

Turning to `O=c1c(-c2ccc(O)cc2)coc2cc(O)cc(O)c12` [Genistein], the “decrease of Aβ25–35 self-aggregation” value at Aβ25–35 is given as 34.90%. The “Fluorescence (Emission = 490 nm / Excitation = 446 nm), replicates 1-3” value at Aβ25–35 (setting [13]) is 656.961 and 678.75 and 636.556.

In the case of `O=c1c(-c2ccc(O)cc2)coc2cc(O[C@@H]3O[C@H](CO)[C@@H](O)[C@H](O)[C@H]3O)cc(O)c12` [Genistin], the IC50 at hMAO-A [1] (setting [3]) and at hMAO-B was over 400 µM throughout.

Regarding `CC1OC(OCC2OC(Oc3c(-c4ccc(O)cc4)oc4cc(O)cc(O)c4c3=O)C(O)C(O)C2O)C(O)C(O)C1O` (centres unmarked) [Kaempferol-3-O-robinobioside], the IC50 at hMAO-A [1] (setting [3]) and at hMAO-B was over 400 µM in each case.

As for `CC1OC(OCC2OC(Oc3c(-c4ccc(O)cc4)oc4cc(O)cc(O)c4c3=O)C(O)C(O)C2O)C(O)C(O)C1O` (centres unmarked) [Nicotiflorine], the IC50 at hMAO-A [1] (setting [3]) and on hMAO-B was over 400 µM throughout.

As for `CC1OC(OCC2OC(Oc3c(-c4ccc(O)c(O)c4)oc4cc(O)cc(O)c4c3=O)C(O)C(O)C2O)C(O)C(O)C1O` (centres unmarked) [Quercetin-3-O-robinobioside], the IC50 at hMAO-A [1] and at hMAO-B was over 400 µM in each case.

As to `CC1OC(OCC2OC(Oc3c(-c4ccc(O)cc4)oc4cc(OC5OC(C)C(O)C(O)C5O)cc(O)c4c3=O)C(O)C(O)C2O)C(O)C(O)C1O` (centres unmarked) [Robinin, kaempferol 3-O-robinoside-7-O-rhamnoside], the IC50 at hMAO-A [1] (setting [3]) and on hMAO-B was over 400 µM throughout.

For `C[C@@H]1O[C@@H](OC[C@H]2O[C@@H](Oc3c(-c4ccc(O)c(O)c4)oc4cc(O)cc(O)c4c3=O)[C@H](O)[C@@H](O)[C@@H]2O)[C@H](O)[C@H](O)[C@H]1O` [Rutin], on hMAO-A [1], the IC50 turned out to be 387 ± 4.63 µM and the “inhibitory activity against MAO-A” value is on record as “weak MAO-A inhibitory activity”. Further, the IC50 at hMAO-B was over 400 µM. Also, the “decrease of Aβ25–35 self-aggregation” value on Aβ25–35 came to 49.31%. Further, at Aβ25–35 (setting [13]), the “Fluorescence (Emission = 490 nm / Excitation = 446 nm), replicates 1-3” value is 556.703 and 574.097 and 523.388.

For the compound `COc1c(CC=C(C)C)c(O)cc2oc(=O)c3c4ccc(O)cc4oc3c12` [glycyrol], the IC50 with MAO-A (read-out: activity against MAO-A (no activity below)) is over 40 µM; with MAO-B (read-out: IC50 against MAO-B), 29.5 µM.

Consider `CC(C)=CCc1cc2c(cc1O)oc(=O)c1c3ccc(O)cc3oc21` [psoralidin], for which, in the assay with MAO-A, the “inhibitory effect against MAO-A” value is “did not show a significant inhibitory effect”. In the assay with MAO-B, the “inhibitory effect against MAO-B” value was “did not show a significant inhibitory effect”.
